Measured values from US9475779B2, “Substituted bicyclic dihydropyrimidinones and their use as inhibitors of neutrophil elastase activity” (priority 2014, dated 2016).
In brackets after ≈: the same amount, converted by molar mass. Where two headings read alike, the source gives them in different places.

How the values were obtained:
[1] = Metabolic stability with human liver microsomes; type: in vitro ADME; settings: for half-life at 1 μM: human, pH 7.6, pooled human liver microsomes, read-out: t1/2 INVITRO
in vitro = in vitro ADME; settings: human, pH 7.2, 37° C.; for Papp A→B at 10 μM: Caco-2, pH 7.2, Caco-2, apical-to-basal, read-out: PEAB; for Papp B→A at 10 μM: Caco-2, pH 7.2, Caco-2, basal-to-apical, read-out: PEBA
physchem = type: physicochemical; settings: for solubility at 24 h: McIlvaine buffer pH 6.8 containing 2.5% DMSO, pH 6.8, aqueous buffer, kinetic from dmso stock, McIlvaine buffer pH 6.8, 2.5% DMSO
neutrophil elastase [2] = biological target: T1, neutrophil elastase (Homo sapiens (Human), UniProt P08246); assay: biochemical; type: biochemical
Method: Human Neutrophil Elastase Assay
All other materials were of the highest grade commercially available.
The following buffers were used: Compound buffer: 100 mM Tris, 500 mM NaCl, adjusted to pH 7.5; Assay buffer: 100 mM Tris, 500 mM NaCl, adjusted to pH 7.5, containing 0.01% BSA.
Assay conditions: Test compounds were prediluted in DMSO and subsequently in compound buffer (5% DMSO final). […] After inactivation of the enzyme, fluorescence intensities were measured at 380 nm excitation and 460 nm emission wavelengths.
Each plate contains wells with a high value control (DMSO+enzyme+substrate) and wells with a low value control (DMSO+inactivated enzyme+substrate). IC50 values were estimated using a sigmoidal concentration response curve with variable slope. Means of low values were taken as 0%, means of high values as 100%.

neutrophil elastase [3] = biological target: T1, neutrophil elastase; assay: biochemical
Caco-2 cells = assay: in vitro; type: in vitro ADME; settings: pH 7.2
hERG potassium channel = hERG potassium channel (Homo sapiens (Human), UniProt Q12809); assay: in vitro
[4] = pooled human liver microsomes, 1 μM test compound, 37° C.
[5] = Neutrophil Elastase assay, substrate MeOSuc-Ala-Ala-Pro-Val-AMC, read-out: IC50

T1 sequence (P08246 whole entry, looked up): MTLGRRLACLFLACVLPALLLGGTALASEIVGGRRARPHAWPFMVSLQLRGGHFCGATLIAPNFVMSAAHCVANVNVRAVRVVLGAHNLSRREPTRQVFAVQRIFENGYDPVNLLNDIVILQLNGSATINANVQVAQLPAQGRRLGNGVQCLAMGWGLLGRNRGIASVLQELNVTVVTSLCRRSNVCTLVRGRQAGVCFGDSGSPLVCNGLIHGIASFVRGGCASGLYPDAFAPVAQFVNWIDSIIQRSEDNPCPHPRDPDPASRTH

| Structure (SMILES) | half-life at 1 μM [1, 4] [h] | Papp A→B at 10 μM (in vitro) [×10⁻⁶ cm/s] | Papp B→A at 10 μM (in vitro) [×10⁻⁶ cm/s] | IC50 (neutrophil elastase [2]; read-out: IC50) [nM] | EC50 (neutrophil elastase [3]) [nM] | also measured |
| --- | --- | --- | --- | --- | --- | --- |
| CN1C(=O)N(c2cccc(C(F)(F)F)c2)C2=C(C(=O)CC2)C1c1ccc(C#N)cc1S(=O)(=O)CCCO (single isomer, unassigned) [Example B.1.3A] | 1.52 | 9.9 | 130 | – | – | solubility at 24 h (physchem): 93 µg/mL (≈ 174 µM) |
| CN1C(=O)N(c2cccc(C(F)(F)F)c2)C2=C(C(=O)CC2)[C@H]1c1ccc(C#N)cc1[S+](C)[O-] (single isomer, unassigned) [Example C.1B, 3-Methanesulfinyl-4-[3-methyl-2,5-dioxo-1-(3-trifluoromethyl-phenyl)-2,3,4,5,6,7-hexahydro-1H-cyclopentapyrimidin-4-yl]-benzonitrile] | – | – | 41 | < 1 | 1 | t1/2 INVITRO [1, 4]: 1.55 h; PEAB (Caco-2 cells): 3.7 ×10⁻⁶ cm/s; Aqueous solubility (physchem): 61 µg/mL |
| CC[S+]([O-])c1cc(C#N)ccc1C1C2=C(CCC2=O)N(c2cccc(C(F)(F)F)c2)C(=O)N1C (single isomer, unassigned) [Example C.5.1, 3-Ethanesulfinyl-4-[3-methyl-2,5-dioxo-1-(3-trifluoromethyl-phenyl)-2,3,4,5,6,7-hexahydro-1H-cyclopentapyrimidin-4-yl]-benzonitrile] | 1.83 | – | 57 | – | – | PEAB (Caco-2 cells): 7.1 ×10⁻⁶ cm/s; solubility at 24 h (physchem): 86 µg/mL (≈ 176 µM) |
| CC[S+]([O-])c1cc(C#N)ccc1C1C2=C(CCC2=O)N(c2cccc(C(F)(F)F)c2)C(=O)N1C (single isomer, unassigned) [Example C.5.2, 3-Ethanesulfinyl-4-[3-methyl-2,5-dioxo-1-(3-trifluoromethyl-phenyl)-2,3,4,5,6,7-hexahydro-1H-cyclopentapyrimidin-4-yl]-benzonitrile] | – | – | – | – | – | t1/2 INVITRO [1]: >2.17 h; PEAB (Caco-2 cells): 16 ×10⁻⁶ cm/s; PEBA (Caco-2 cells): 82 ×10⁻⁶ cm/s; Aqueous solubility (physchem): 69 µg/mL |
| CN1C(=O)N(c2ccnc(C(F)(F)F)c2)C2=C(C(=O)CC2)C1c1ccc(C#N)cc1S(C)(=O)=O (single isomer, unassigned) [Example D.1A, 3-Methanesulfonyl-4-[3-methyl-2,5-dioxo-1-(2-trifluoromethyl-pyridin-4-yl)-2,3,4,5,6,7-hexahydro-1H-cyclopentapyrimidin-4-yl]-benzonitrile] | > 2.17 | 19 | 81 | – | – | inhibition at 10 µM (hERG potassium channel): 8% |
| CCS(=O)(=O)c1cc(C#N)ccc1C1C2=C(CCC2=O)N(c2ccnc(C(F)(F)F)c2)C(=O)N1C (single isomer, unassigned) [Example D.3B, 3-Ethanesulfonyl-4-[3-methyl-2,5-dioxo-1-(2-trifluoromethyl-pyridin-4-yl)-2,3,4,5,6,7-hexahydro-1H-cyclopentapyrimidin-4-yl]-benzonitrile] | 2 | 21 | 85 | 1.4 | 1 | – |
| CCNC(=O)N1C(=O)N(c2ccnc(C(F)(F)F)c2)C2=C(C(=O)CC2)C1c1ccc(C#N)cc1S(=O)(=O)CC (single isomer, unassigned) [Example D.4.1A, 4-(4-cyano-2-ethanesulfonyl-phenyl)-2,5-dioxo-1-(2-trifluoromethyl-pyridin-4-yl)-1,2,4,5,6,7-hexahydro-cyclopentapyrimidine-3-carboxylic acid ethylamide] | > 2.17 | 3.6 | 61 | – | < 1 | IC50 (neutrophil elastase [2]; IC50): < 1 nM; solubility at 24 h (physchem): 81 µg/mL (≈ 144 µM) |
| CCS(=O)(=O)c1cc(C#N)ccc1C1NC(=O)N(c2cccc(C(F)F)c2)C2=C1C(=O)CC2 (single isomer, unassigned) [Example D.5A, 4-[1-(3-Difluoromethyl-phenyl)-2,5-dioxo-2,3,4,5,6,7-hexahydro-1H-cyclopentapyrimidin-4-yl]-3-ethanesulfonyl-benzonitrile] | > 2.17 | 7.5 | 78 | – | 1 | IC50 (neutrophil elastase [2]; IC50): 2.2 nM; solubility at 24 h (physchem): 67 µg/mL (≈ 142 µM) |
| CNC(=O)N1C(=O)N(c2cc(C(F)(F)F)ccn2)C2=C(C(=O)CC2)C1c1ccc(C#N)cc1S(C)(=O)=O (stereo not drawn) [D.4.4] | > 2.17 | 3.1 | 60 | < 1 | 2 | – |
| CCNC(=O)N1C(=O)N(c2cc(C(F)(F)F)ccn2)C2=C(C(=O)CC2)C1c1ccc(C#N)cc1S(C)(=O)=O (stereo not drawn) [D.4.5] | > 2.17 | 7.3 | 67 | < 1 | 1 | solubility at 24 h (physchem): 78 µg/mL (≈ 142 µM) |
| CNC(=O)N1C(=O)N(c2cncc(Cl)c2)C2=C(C(=O)CC2)C1c1ccc(C#N)cc1S(C)(=O)=O (stereo not drawn) [D.4.8] | – | – | – | < 1 | – | – |
| CCNC(=O)N1C(=O)N(c2cncc(Cl)c2)C2=C(C(=O)CC2)C1c1ccc(C#N)cc1S(C)(=O)=O (stereo not drawn) [D.4.9] | – | – | – | – | – | IC50 (neutrophil elastase [2]; [5]): < 1 nM |
| CN1C(=O)N(c2cccc(C(F)(F)F)c2)C2=C(C(=O)CC2)C1c1ccc(C#N)cc1CO (stereo not drawn) [Example A.1, 3-Hydroxymethyl-4-[3-methyl-2,5-dioxo-1-(3-trifluoromethyl-phenyl)-2,3,4,5,6,7-hexahydro-1H-cyclopentapyrimidin-4-yl]-benzonitrile] | – | – | – | 1.6 | – | – |
| CN1C(=O)N(c2cccc(C(F)(F)F)c2)C2=C(C(=O)CC2)C1c1ccc(C#N)cc1C(C)(C)O (stereo not drawn) [Example A.2, 3-(1-Hydroxy-1-methyl-ethyl)-4-[3-methyl-2,5-dioxo-1-(3-trifluoromethyl-phenyl)-2,3,4,5,6,7-hexahydro-1H-cyclopentapyrimidin-4-yl]-benzonitrile] | > 2.17 | 92 | 80 | < 1 | 1 | – |
| CC(O)c1cc(C#N)ccc1C1C2=C(CCC2=O)N(c2cccc(C(F)(F)F)c2)C(=O)N1C (stereo not drawn) [Example A.3, 3-(1-Hydroxy-ethyl)-4-[3-methyl-2,5-dioxo-1-(3-trifluoromethyl-phenyl)-2,3,4,5,6,7-hexahydro-1H-cyclopentapyrimidin-4-yl]-benzonitrile] | > 2.17 | 67 | 87 | – | – | solubility at 24 h (physchem): 65 µg/mL (≈ 143 µM) |
| N#Cc1ccc(C2NC(=O)N(c3cccc(C(F)(F)F)c3)C3=C2C(=O)CC3)c(S(=O)(=O)CCCO)c1 (stereo not drawn) [Example B.1, 4-[2,5-Dioxo-1-(3-trifluoromethyl-phenyl)-2,3,4,5,6,7-hexahydro-1H-cyclopentapyrimidin-4-yl]-3-(3-hydroxy-propane-1-sulfonyl)-benzonitrile] | – | – | – | – | – | IC50 (neutrophil elastase [2]; [5]): 2.1 nM |
| CCNC(=O)N1C(=O)N(c2cccc(C(F)(F)F)c2)C2=C(C(=O)CC2)C1c1ccc(C#N)cc1[S+](C)[O-] (stereo not drawn) [Example C.3, 4-(4-Cyano-2-methanesulfinyl-phenyl)-2,5-dioxo-1-(3-trifluoromethyl-phenyl)-1,2,4,5,6,7-hexahydro-cyclopentapyrimidine-3-carboxylic acid ethylamide] | – | – | – | – | – | IC50 (neutrophil elastase [2]; [5]): < 1 nM |
| CCS(=O)(=O)c1cc(C#N)ccc1C1NC(=O)N(c2ccnc(C(F)(F)F)c2)C2=C1C(=O)CC2 (stereo not drawn) [Example D.2, 4-[2,5-Dioxo-1-(2-trifluoromethyl-pyridin-4-yl)-2,3,4,5,6,7-hexahydro-1H-cyclopentapyrimidin-4-yl]-3-ethanesulfonyl-benzonitrile] | – | – | – | – | – | IC50 (neutrophil elastase [2]; [5]): 24 nM |
| CCS(=O)(=O)c1cc(C#N)ccc1C1C2=C(CCC2=O)N(c2ccnc(C(F)(F)F)c2)C(=O)N1C(=O)NC (stereo not drawn) [Example D.4, 4-(4-Cyano-2-ethanesulfonyl-phenyl)-2,5-dioxo-1-(2-trifluoromethyl-pyridin-4-yl)-1,2,4,5,6,7-hexahydro-cyclopentapyrimidine-3-carboxylic acid methylamide] | – | – | – | – | – | IC50 (neutrophil elastase [2]; [5]): < 1 nM |
| CCS(=O)(=O)c1cc(C#N)ccc1C1C2=C(CCC2=O)N(c2cccc(C(F)F)c2)C(=O)N1C (stereo not drawn) [Example D.6, 4-[1-(3-Difluoromethyl-phenyl)-3-methyl-2,5-dioxo-2,3,4,5,6,7-hexahydro-1H-cyclopentapyrimidin-4-yl]-3-ethanesulfonyl-benzonitrile] | – | – | – | < 1 | – | – |
| CCS(=O)(=O)c1cc(C#N)ccc1C1C2=C(CCC2=O)N(c2cccc(C(F)F)c2)C(=O)N1C(=O)NC (stereo not drawn) [Example D.7, 4-(4-Cyano-2-ethanesulfonyl-phenyl)-1-(3-difluoromethyl-phenyl)-2,5-dioxo-1,2,4,5,6,7-hexahydro-cyclopentapyrimidine-3-carboxylic acid methylamide] | – | – | – | < 1 | – | – |
| CS(=O)(=O)c1cc(C#N)ccc1C1C2=C(CCC2=O)N(c2cccc(C(F)(F)F)c2)C(=O)N1CCO (stereo not drawn) [Example E.1, 4-[3-(2-Hydroxy-ethyl)-2,5-dioxo-1-(3-trifluoromethyl-phenyl)-2,3,4,5,6,7-hexahydro-1H-cyclopentapyrimidin-4-yl]-3-methanesulfonyl-benzonitrile] | – | – | – | – | – | IC50 (neutrophil elastase [2]; [5]): < 1 nM |
